This is an account of results in US7320972B2, “4-Biarylyl-1-phenylazetidin-2-ones” (Microbia, Inc., priority 2003, dated 2008).

Structures are written as SMILES.

The melting point is the temperature, or range, at which the solid turns liquid. In general, inhibition in vivo refers to the percentage by which the read-out fell short of the control.

The subject of series [1] is cholesterol absorption (serum 3H-cholesterol). Nature of the series: In Vivo Assay of Hypolipidemic Agents using the Rat Cholesterol Absorption Model. Further details: species or system Sprague-Dawley rats. The following applies: peroral; for inhibition in vivo at 1 mg/kg: po, serum 3H-cholesterol 3 h after cholesterol dose, vs vehicle control. The method in brief: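 Female Sprague-Dawley rats (150–250 g, 4–6 per group) were fasted overnight and dosed orally with compound in olive oil or vehicle. Thirty minutes later they received 3–5 μCi 3H-cholesterol orally in olive oil, and serum radioactivity was measured at 3 h. % inhibition = 100×(1−Ctest/Cctrl) at a fixed dose; ED50 is the dose giving half-maximal effect.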

Compound `COc1cc(-c2ccc([C@@H]3[C@@H](CC[C@H](O)c4ccc(F)cc4)C(=O)N3c3ccc(F)cc3)cc2)cc(OC)c1OC` [Example 9, (3R,4S)-1-(4-fluorophenyl)-3-[(3S)-3-(4-fluorophenyl)-3-hydroxypropyl]-4-(3′,4′,5′-trimethoxybiphenyl-4-yl)azetidin-2-one] had a melting point of 103 °C. For the same compound, the inhibition in vivo at 1 mg/kg in series [1] turned out to be 40%.
The like results for `O=C1[C@H](CC[C@H](O)c2ccc(F)cc2)[C@@H](c2ccc(-c3cccc(O)c3)cc2)N1c1ccc(F)cc1` [Example 4, (3R,4S)-1-(4-Fluorophenyl)-3-[(3S)-3-(4-fluorophenyl)-3-hydroxypropyl]-4-(3′-hydroxybiphenyl-4-yl)azetidin-2-one] were, in that order, 107 °C and 72%.
On to `CS(=O)(=O)c1cccc(-c2ccc([C@@H]3[C@@H](CC[C@H](O)c4ccc(F)cc4)C(=O)N3c3ccc(F)cc3)cc2)c1` [Example 10, (3R,4S)-1-(4-fluorophenyl)-3-[(3S)-3-(4-fluorophenyl)-3-hydroxypropyl]-4-[3′-(methylsulfonyl)biphenyl-4-yl]azetidin-2-one], for which the melting point was determined as 104 °C. In series [1] (3 mg/kg (footnote 2), serum 3H-cholesterol vs vehicle control), the “% inhibition at 3 mg/kg” value is given as 54^2%.
On to `COc1cccc(-c2ccc([C@@H]3[C@@H](CC[C@H](O)c4ccc(F)cc4)C(=O)N3c3ccc(F)cc3)cc2)c1OC` [Example 11, (3R,4S)-4-(2′,3′-dimethoxybiphenyl-4-yl)-1-(4-fluorophenyl)-3-[(3S)-3-(4-fluorophenyl)-3-hydroxypropyl]azetidin-2-one], for which the melting point is 101 °C. The inhibition in vivo at 1 mg/kg in series [1] was 28%.
The compound `COc1ccc(-c2ccc([C@@H]3[C@@H](CC[C@H](O)c4ccc(F)cc4)C(=O)N3c3ccc(F)cc3)cc2)cc1` [Example 5, (3R,4S)-1-(4-fluorophenyl)-3-[(3S)-3-(4-fluorophenyl)-3-hydroxypropyl]-4-(4′-methoxybiphenyl-4-yl)azetidin-2-one] gave a melting point of 103 °C. Further, the “% inhibition at 10 mg/kg” value in series [1] (10 mg/kg (footnote 1), serum 3H-cholesterol vs vehicle control) was 26^1%.
